Data: PMC5634595, “Properties of halogenated and sulfonated porphyrins relevant for the selection of photosensitizers in anticancer and antimicrobial therapies” (PLoS ONE, 2017)
Read-outs that look alike come from different tables or passages of the source.

Legend:
[1] = Singlet oxygen quantum yield by phosphorescence at 1270 nm; type: physicochemical; settings: EtOH, phenalenone as reference
Description: (§1) Fluorescence emission spectra were recorded from 550 nm to 750 nm with excitation at Soret band (λ≈420 nm). The excitation and emission slits were both set to 8 nm and scanning speed to 50 nm/min. Fluorescence spectra were recorded with a Perkin Elmer Fluorescence Spectrometer LS 55. Determination of fluorescence quantum yields: ΦF of studied photosensitizers was determined using the comparative method according to the equation: ΦF=ΦFStd⋅FAStdn^2/FStdAnStd2, (1) where F and FStd are the areas under the fluorescence emission curves of the sample and the standard, A and AStd are the absorbance of the sample and the standard and n are the refractive indices of the solvent used for the sample and the standard, respectively. Commercially available tetraphenylporphyrin TPP (Std) (ΦF = 0.10 in toluene) was employed as the standard. The absorbance of the solutions at the excitation wavelength was in the range of 0.02. Singlet oxygen quantum yields were determined based on the relative phosphorescence emissions of singlet oxygen generated by a reference and by each one of the porphyrins, using a method described elsewhere. Briefly, a modified Applied Photophysics LKS.60 flash photolysis spectrometer with a Hamamatsu NIR photomultiplier for detection and HP Infinium (500 MHz, 1GSas^-1) or Tektronix DPO 7254 (2.5 GHz, 40GSas^-1) oscilloscopes were used. The adaptation of this spectrometer allowed for the detection of singlet oxygen phosphorescence at room temperature. This emission was detected using a Hamamatsu R5509–42 photomultiplier, cooled to 193 K in a liquid nitrogen chamber. […] The modification of the spectrometer for time-resolved singlet oxygen phosphorescence measurements involved the interposition of a Melles Griot cold mirror (03MCS005), which reflects more than 99% of the incident light in the 400–700 nm range, and of a Scotch RG665 filter. A 600 line diffraction grating was mounted in place of a standard one. […] Solutions of photosensitizers were prepared with matched absorbances close to 0.2 at 355 nm. […]

[2] = test system: P. aeruginosa (ATCC19660); assay: Photodynamic inactivation of microorganisms, CFU; type: cell-based; settings: PDI 10 J/cm^2, 420±20 nm, concentration not given
Description: (§2) The microorganisms used in PDI were: S. aureus (8325–4), E. faecalis (ATCC29212), E. coli (K12), P. aeruginosa (ATCC19660), S. marcescens (ATCC14756) and C. albicans (DAY286). The planctonic bacteria cells were cultured in brain heart infusion broth (Sigma-Aldrich) and LB Broth/Lennox (BioShop Lab Science Products) in an orbital incubator (37°C, 130 rpm), until the optical density reached 0.5, which corresponds to approximately 10^7 CFU per mL. The fungal yeasts were cultured in YPD Broth (BioShop) with overnight aeration at 30°C to reach ca. 10^6 CFU/mL. For PDI experiments cell suspensions of bacteria or fungal yeasts were incubated with various concentrations of the porphyrins at pH 7.4 (PBS) for 1 h in the dark at room temperature. Aliquots (1 mL) were transferred to a 12-well plate and illuminated with a blue light. We used blue-LED array (420±20 nm) to deliver a light dose of 10 J/cm^2 (measured with a power meter). Cells treated with photosensitizers in the dark were incubated covered with aluminum foil for the same time as the PDI groups (1 h). After illumination (or dark incubation) samples were shaken, diluted in PBS, mixed and plated (LB agar). Aliquots were taken from each well to determine the CFU value. Plates were streaked in triplicate and incubated for 12–36 h at 30 °C (for fungal yeasts) or 37 °C (for bacteria) in the dark to allow colony formation.

[3] = molecular target: HSA (Homo sapiens, UniProt P02768); assay: Binding to HSA by fluorescence quenching (Stern-Volmer, Scatchard); settings: for KSV (Stern-Volmer constant), HSA: HSA fluorescence quenching, PBS, room temperature; for n (number of binding sites), HSA: Scatchard analysis
Description: The binding of the PS to HSA was studied by spectrofluorometry at room temperature. An aqueous (phosphate buffer saline, PBS) solution of HSA was titrated with varying concentrations of the respective porphyrin solutions. HSA was excited at 295 nm and fluorescence was recorded between 300 nm and 400 nm. The systematic lowering of HSA fluorescence with increasing photosensitizer concentrations was noted and used in the determination of the binding constants and the number of binding sites on HSA according to Scatchard equation. The changes in HSA fluorescence intensity were related to porphyrin concentrations by the Stern-Volmer relationship. The binding constant (Kb) of PS to lipoproteins was also determined using the spectroscopic titration method. The sets of steady-state emission spectra of PBS solutions with different concentrations of HDL and LDL, to which the porphyrin (5 μM) was added were measured. The fluorescence intensity of the dye increased upon its partitioning into the lipoproteins. To obtain Kb, F versus [L] data were plotted and fitted to by a nonlinear regression routine.

[4] = Fluorescence emission and fluorescence quantum yield (comparative method); type: physicochemical; settings: EtOH, TPP as standard
Description: as §1

[5] = UV/Vis absorption spectra, molar absorption coefficients; type: physicochemical; settings: EtOH; for Absorption λmax, B(0,0): Soret band
Description: All commercial chemicals and reagents were of analytical grade and were purchased from Sigma-Aldrich. UV/Vis absorption spectra were recorded in a Hewlett Packard HP8453 spectrophotometer. Solutions containing samples of photosensitizers were dissolved in the selected solvent in quartz cuvettes. Using measured absorbance for various concentrations of porphyrin in ethanol, the molar absorption coefficients were determined from Beer’s law.

[6] = n-Octanol/PBS partition coefficient, shake-flask; type: physicochemical; settings: modified shake-flask
Description: The n-octanol/PBS partition coefficients were measured following shake-flask method with minor modifications. The photosensitizers were dissolved in n-octanol previously saturated with a solution of PBS. The same volume of PBS saturated with n-octanol was added and mixed on a vortex device and then the phases were separated by centrifugation. Next, the PBS/n-octanol phase was taken and diluted to obtain 0.5% of PBS/n-octanol content in the final solution. This solution was left into the ultrasonic bath. The fluorescence of each solution was measured using Fluorescence Spectrometer LS 55 (Perkin Elmer) and compared with calibration curve to obtain the concentration of the photosensitizer. Partition coefficients were calculated from the ratio coct/cPBS, where coct and cPBS are the concentrations of the porphyrin derivatives in the n-octanol and in the PBS.

[7] = test system: E. coli (K12); assay: Photodynamic inactivation of microorganisms, CFU; type: cell-based; settings: PDI 10 J/cm^2, 420±20 nm, concentration not given
Description: as §2

[8] = Photodegradation (photostability) under xenon lamp irradiation; type: physicochemical; settings: same irradiation conditions as in the biological studies
Description: The photostability of porphyrins was investigated following the measurement of their optical absorption in aqueous solutions. Continuous irradiation of an aerated solution were carried out using the xenon lamp (XBO-150) through the 10 cm water filter and bandpass filter transmitting within >400 nm range, delivering 75 mW/cm^2. The reaction progress was monitored by UV/Vis spectroscopy using a Hewlett Packard HP8453 spectrophotometer.

[9] = design: method as in earlier work; settings: non-halogenated standard, in toluene; cited from earlier work
[10] = reference compound, in ethanol; cited from earlier work

Chain of HSA (P02768 25-609): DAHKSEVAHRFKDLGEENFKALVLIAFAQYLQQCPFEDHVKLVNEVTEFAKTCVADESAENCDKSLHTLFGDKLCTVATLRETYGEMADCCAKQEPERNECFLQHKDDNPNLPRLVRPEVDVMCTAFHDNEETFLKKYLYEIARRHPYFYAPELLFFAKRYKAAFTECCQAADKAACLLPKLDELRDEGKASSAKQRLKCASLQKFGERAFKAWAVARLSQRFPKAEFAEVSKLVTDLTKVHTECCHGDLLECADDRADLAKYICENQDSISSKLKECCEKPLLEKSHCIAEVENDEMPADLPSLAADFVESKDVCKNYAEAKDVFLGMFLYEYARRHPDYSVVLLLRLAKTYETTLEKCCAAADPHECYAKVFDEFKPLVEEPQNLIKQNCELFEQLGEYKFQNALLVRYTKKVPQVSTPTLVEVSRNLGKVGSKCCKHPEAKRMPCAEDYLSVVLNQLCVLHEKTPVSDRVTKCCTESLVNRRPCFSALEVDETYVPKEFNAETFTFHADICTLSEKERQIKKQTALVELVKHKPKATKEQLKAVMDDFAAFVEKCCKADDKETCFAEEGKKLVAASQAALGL

Structure (SMILES)	Singlet oxygen quantum yield ΦΔ [1]	Decrease in survival / bacteria CFU killing [2]	KSV (Stern-Volmer constant), HSA [3]	n (number of binding sites), HSA [3]	Fluorescence quantum yield ΦF [4]	Absorption λmax, Qx (0,1) [5] [nm]	Absorption λmax, Qx(0,0) [5] [nm]	Absorption λmax, Qy (0,0) [5] [nm]	Absorption λmax, Qy (0,1) [5] [nm]	Absorption λmax, B(0,0) [5] [nm]	logP [6]	also measured
CCNS(=O)(=O)c1ccc(Cl)c(-c2c3nc(c(-c4c(Cl)ccc(S(=O)(=O)NCC)c4Cl)c4ccc([nH]4)c(-c4c(Cl)ccc(S(=O)(=O)NCC)c4Cl)c4nc(c(-c5c(Cl)ccc(S(=O)(=O)NCC)c5Cl)c5ccc2[nH]5)C=C4)C=C3)c1Cl [Cl2PEt, 5,10,15,20-tetrakis(2,6-dichloro-3-N-ethylsulfamoylphenyl)porphyrin]	0.85	up to 3 logs	6.62 10^5M^-1	1	0.017	592	646	546	514	418	1.84	
O=S(=O)(O)c1ccc(Cl)c(-c2c3nc(c(-c4c(Cl)ccc(S(=O)(=O)O)c4Cl)c4ccc([nH]4)c(-c4c(Cl)ccc(S(=O)(=O)O)c4Cl)c4nc(c(-c5c(Cl)ccc(S(=O)(=O)O)c5Cl)c5ccc2[nH]5)C=C4)C=C3)c1Cl [Cl2POH, 5,10,15,20-tetrakis(2,6-dichloro-3-sulfophenyl)porphyrin]	0.98	1.5–2 logs	4.66 10^5M^-1	1	0.015	592	646	546	514	420	-1.8	Decrease in survival [7]: 1.5–2 logs
C=CC1=C(C)c2cc3[nH]c(cc4nc(cc5[nH]c(cc1n2)c(C)c5CCC(=O)O)C(CCC(=O)O)=C4C)c(C)c3C=C [PpIX]												Photostability (Soret band absorbance during irradiation) [8]: more prone to photooxidation
C1=Cc2nc1c(-c1ccccc1)c1nc(c(-c3ccccc3)c3ccc([nH]3)c(-c3ccccc3)c3ccc([nH]3)c2-c2ccccc2)C=C1 [TPP, tetraphenylporphyrin]												Fluorescence quantum yield ΦF [9]: 0.10
O=C1C=Cc2cccc3cccc1c23 [phenalenone]												Singlet oxygen quantum yield ΦΔ [10]: 0.95 ± 0.02
